In US20150159192A1, “STERILIZATION INDICATORS INCLUDING A NEUTRALIZER AND METHODS” (3M INNOVATIVE PROPERTIES COMPANY, priority 2010, published 2015):
Like-named read-outs stand apart in the source and are kept apart here.

B1: Catalase (protein, UniProt P00432 2-527, looked up)
Catalase: ADNRDPASDQMKHWKEQRAAQKPDVLTTGGGNPVGDKLNSLTVGPRGPLLVQDVVFTDEMAHFDRERIPERVVHAKGAGAFGYFEVTHDITRYSKAKVFEHIGKRTPIAVRFSTVAGESGSADTVRDPRGFAVKFYTEDGNWDLVGNNTPIFFIRDALLFPSFIHSQKRNPQTHLKDPDMVWDFWSLRPESLHQVSFLFSDRGIPDGHRHMNGYGSHTFKLVNANGEAVYCKFHYKTDQGIKNLSVEDAARLAHEDPDYGLRDLFNAIATGNYPSWTLYIQVMTFSEAEIFPFNPFDLTKVWPHGDYPLIPVGKLVLNRNPVNYFAEVEQLAFDPSNMPPGIEPSPDKMLQGRLFAYPDTHRHRLGPNYLQIPVNCPYRARVANYQRDGPMCMMDNQGGAPNYYPNSFSAPEHQPSALEHRTHFSGDVQRFNSANDDNVTQVRTFYLKVLNEEQRKRLCENIAGHLKDAQLFIQKKAVKNFSDVHPEYGSRIQALLDKYNEEKPKNAVHTYVQHGSHLSAREKANL
notes: enzyme neutralizer from Sigma-Aldrich, 226 units added per vial

Assays:
[1] = test system: Geobacillus stearothermophilus spores; experiment: Hydrogen peroxide neutralizers in BI recovery medium, spore outgrowth after STERRAD 100S cycle; type: cell-based; set-up: key to Negative Control / Positive Control: Pos*/Neg*—positive (yellow) or negative (purple) was discolored by the additive; Pos*/Neg*—positive (yellow) or negative (purple) was discolored by the additive; Neg^3—positive control did not grow
Description: This example compares the neutralization effectiveness of different additives in the biological indicators recovery medium. The additives (neutralizers) were added to the recovery media used in the 3M ATTEST 1292 Rapid Readout Biological Indicators. Catalase, L-cysteine, sodium thiosulfate, D-ethionine, S-methyl-cysteine, S-benzyl-L-cysteine, thiodiproprionic acid, potassium ferricyanide and sodium pyruvate were all purchased from Sigma-Aldrich Corporation, St. Louis, Mo. Isoascorbic acid was purchased from Alfa Aesar, Ward Hill, Mass. Methionine was purchased from Calbiochem, EMD Chemicals, Gibbstown, N.J.
3M ATTEST 1292 Biological Indicators were steam sterilized to kill the existing spore population. Two sets of 3M ATTEST 1292 BIs were evaluated, one set contained the paper spore carrier used in the commercially available indicator. In the second set, the spore carrier was replaced with fiberglass strips, commercially available as […] 230-11.0 (Crane &Co., Inc., Dalton, Mass.). The steam sterilized BIs were then exposed in a STERRAD 100S hydrogen peroxide/plasma sterilization cycle. Immediately following the hydrogen peroxide/plasma sterilization, the BIs containing media with and without additives were inoculated with less than 100 Geobacillus stearothermophilus spores recovered from a 3M ATTEST 1292 BI spore strip. The indicators were incubated at 60° C. (+/−2° C.) for 7 days and observed for growth, indicated by a color change from purple to yellow. A positive and negative control was tested for each additive. The positive controls were steam sterilized and inoculated with less than 100 spores. The negative controls were steam sterilized.

[2] = test system: Geobacillus stearothermophilus spores; experiment: Remediation of residual hydrogen peroxide, spore recovery method with sodium thiosulfate; type: cell-based
[3] = additive 1 g/l, CRANEGLAS fiberglass carrier, 7 days
[4] = additive 1 g/l, paper spore carrier, 7 days
[5] = additive 1 g/l, steam sterilized and inoculated with less than 100 spores, no H2O2
[6] = additive 1 g/l, steam sterilized, not inoculated
[7] = additive 2 g/l, CRANEGLAS fiberglass carrier, 7 days
[8] = additive 2 g/l, paper spore carrier, 7 days
[9] = additive 2 g/l, steam sterilized and inoculated with less than 100 spores, no H2O2
[10] = additive 2 g/l, steam sterilized, not inoculated
[11] = additive 4 g/l, CRANEGLAS fiberglass carrier, 7 days
[12] = additive 4 g/l, paper spore carrier, 7 days
[13] = additive 4 g/l, steam sterilized and inoculated with less than 100 spores, no H2O2
[14] = additive 4 g/l, steam sterilized, not inoculated
[15] = additive 8 g/l, CRANEGLAS fiberglass carrier, 7 days
[16] = additive 8 g/l, paper spore carrier, 7 days
[17] = additive 8 g/l, steam sterilized and inoculated with less than 100 spores, no H2O2
[18] = additive 8 g/l, steam sterilized, not inoculated

| Molecule | No. Pos. CRANEGLAS [1, 3] | No. Pos. Paper [1, 4] | Positive Control [1, 5] | Negative Control [1, 6] | No. Pos. CRANEGLAS [1, 7] | No. Pos. Paper [1, 8] | Positive Control [1, 9] | Negative Control [1, 10] | No. Pos. CRANEGLAS [1, 11] | No. Pos. Paper [1, 12] | Positive Control [1, 13] | Negative Control [1, 14] | No. Pos. CRANEGLAS [1, 15] | No. Pos. Paper [1, 16] | Positive Control [1, 17] | Negative Control [1, 18] | also measured |
| --- | --- | --- | --- | --- | --- | --- | --- | --- | --- | --- | --- | --- | --- | --- | --- | --- | --- |
| CCSCC[C@@H](N)C(=O)O [D-ethionine] | 4 | 2 | Pos | Neg | 4 | 0 | Pos | Neg | 4 | 2 | Pos | Neg | 4 | 3 | Pos | Neg | – |
| O=C1O[C@H]([C@H](O)CO)C(O)=C1O [Isoascorbic acid] | 0 | 3 | Pos | Neg | 4 | 3 | Pos | Neg* | 4 | 3 | Pos* | Neg* | 4 | 3 | Pos* | Neg* | Additive level that effectively neutralized the paper carriers ([1]; paper carriers): 1 gram per liter |
| N[C@@H](CS)C(=O)O [L-cysteine] | 4 | 1 | Pos | Neg | 4 | 0 | Pos | Neg | 4 | 3 | Pos | Neg | 4 | 3 | Pos | Neg | – |
| CSCC[C@H](N)C(=O)O [Methionine] | 4 | 0 | Pos | Neg | 4 | 0 | Pos | Neg | 4 | 3 | Pos | Neg | 4 | 3 | Pos | Neg | – |
| N[C@@H](CSCc1ccccc1)C(=O)O [S-benzyl-L-cysteine] | 4 | 0 | Pos | Neg | 4 | 0 | Pos | Neg | 4 | 0 | Pos | Neg | – | – | – | – | – |
| CSC[C@H](N)C(=O)O [S-methyl-cysteine] | 4 | 0 | Pos | Neg | 4 | 0 | Pos | Neg | 4 | 2 | Pos | Neg | 4 | 3 | Pos* | Neg | – |
| CC(=O)C(=O)[O-].[Na+] [Sodium pyruvate, sodium pyruvate] | – | 0 | Pos | Neg | – | 2 | Pos | Neg | – | 3 | Pos | Neg | – | 3 | Pos | Neg | – |
| O=S([O-])([O-])=S.[Na+].[Na+] [Sodium thiosulfate, sodium thiosulfate] | – | – | – | – | – | – | – | – | – | – | – | – | – | – | – | – | Additive level that effectively neutralized the paper carriers [1]: 1 gram per liter; Negative Control [1]: Neg and Neg*; No. Pos. CRANEGLAS [1]: 4; No. Pos. Paper [1]: 3; Positive Control [1]: Pos; Spore recovery ability (in words) [2]: good spore recovery agent |
| O=C(O)CCSCCC(=O)O [Thiodiproprionic acid, thiodiproprionic acid] | 1 | 0 | Pos | Neg | 3 | 0 | Neg^3 | Neg | 3 | 0 | Neg^3 | Neg | 3 | 3 | Pos | Neg | – |
| B1 | – | – | – | – | – | – | – | – | – | – | – | – | – | – | – | – | Neutralization of residual hydrogen peroxide (in words) [1]: sufficiently neutralized; No. Pos. CRANEGLAS ([1]; 226 units added per vial, CRANEGLAS fiberglass carrier, 7 days): 4; No. Pos. Paper ([1]; 226 units added per vial, paper spore carrier, 7 days): 3; Positive Control ([1]; 226 units added per vial, steam sterilized and inoculated): Pos; Negative Control ([1]; 226 units added per vial, steam sterilized, not inoculated): Neg |
